According to PubChem BioAssay AID248 (DTP/NCI, 2004):
Several values for one entry are separate records, joined by “and”; a condition that tells them apart may be missing. Equal entries are not always repeated. Inconclusive results and toxic doses are left out. Rule as the data show it: active = T/C of 150% or more; inactive = T/C below 125%.

System: L1210 leukemia ip in BDF1 mice, survival T/C
Experiment: NCI In Vivo Anticancer Drug Screen. Data for tumor model L1210 Leukemia (intraperitoneal) in B6D2F1 (BDF1) mice
Details: endpoint: mean survival time, higher = longer survival
Method in brief: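 Antitumor effect is assessed in tumor-bearing animals. Survival in the compound arm is compared with a vehicle-dosed control arm and expressed as their quotient.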

[1] = dose: 100.0 mg/kg/injection, schedule: Q01DX009 (ip), vehicle: Klucel (hydroxypropylcellulose) (HPC)
[2] = dose: 200.0 mg/kg/injection, schedule: Q01DX009 (ip), vehicle: Klucel (hydroxypropylcellulose) (HPC)
[3] = dose: 400.0 mg/kg/injection, schedule: Q01DX009 (ip), vehicle: Klucel (hydroxypropylcellulose) (HPC)
[4] = dose: 100.0 mg/kg/injection, schedule: Q04DX003 (ip), vehicle: Klucel (hydroxypropylcellulose) (HPC)
[5] = dose: 200.0 mg/kg/injection, schedule: Q04DX003 (ip), vehicle: Klucel (hydroxypropylcellulose) (HPC)
[6] = dose: 400.0 mg/kg/injection, schedule: Q04DX003 (ip), vehicle: Klucel (hydroxypropylcellulose) (HPC)
[7] = dose: 100.0 mg/kg/injection, schedule: Q01DX001 (ip), vehicle: saline
[8] = dose: 400.0 mg/kg/injection, schedule: Q01DX001 (ip), vehicle: saline
[9] = dose: 100.0 mg/kg/injection, schedule: Q04DX003 (ip), vehicle: saline with Tween-80
[10] = dose: 200.0 mg/kg/injection, schedule: Q04DX003 (ip), vehicle: saline with Tween-80
[11] = dose: 400.0 mg/kg/injection, schedule: Q04DX003 (ip), vehicle: saline with Tween-80
[12] = dose: 100.0 mg/kg/injection, schedule: Q01DX001 (ip), vehicle: saline with Tween-80
[13] = dose: 100.0 mg/kg/injection, schedule: Q04DX002 (ip), vehicle: Klucel (hydroxypropylcellulose) (HPC)
[14] = dose: 200.0 mg/kg/injection, schedule: Q04DX002 (ip), vehicle: Klucel (hydroxypropylcellulose) (HPC)
[15] = dose: 400.0 mg/kg/injection, schedule: Q04DX002 (ip), vehicle: Klucel (hydroxypropylcellulose) (HPC)

Measured: T/C

CC(=O)Nc1c(Cl)cc(I)cc1Cl
inactive: [1] 103 % of control | [2] 103 % of control | [3] 97 % of control

COc1cc(C(=O)O)c(Br)cc1C
inactive: [1] 111 % of control | [4] 103 % of control | [2] 103 % of control | [5] 93 % of control | [3] 98 % of control | [6] 95 % of control

CC(C)(C)c1cc(C#N)cc(Br)c1O
inactive: dose: 25.0 mg/kg/injection, schedule: Q04DX002 (ip), vehicle: saline with Tween-80 102 % of control | dose: 50.0 mg/kg/injection, schedule: Q04DX002 (ip), vehicle: saline with Tween-80 97 % of control | dose: 100.0 mg/kg/injection, schedule: Q04DX002 (ip), vehicle: saline with Tween-80 97 % of control and 102 % of control

O=C(O)c1c(O)c2cc(Cl)ccc2oc1=O
inactive: [7] 98 % of control | [8] 98 % of control

OC(COc1ccccc1)COc1ccccc1
inactive: [4] 105 % of control | [9] 96 % of control | [5] 105 % of control | [10] 95 % of control | [6] 106 % of control | [11] 93 % of control

N#CCCCCn1ccc(=O)[nH]c1=O
inactive: dose: 45.0 mg/kg/injection, schedule: Q01DX009 (ip), vehicle: Klucel (hydroxypropylcellulose) (HPC) 92 % of control | dose: 90.0 mg/kg/injection, schedule: Q01DX009 (ip), vehicle: Klucel (hydroxypropylcellulose) (HPC) 104 % of control | [4] 100 % of control | dose: 180.0 mg/kg/injection, schedule: Q01DX009 (ip), vehicle: Klucel (hydroxypropylcellulose) (HPC) 98 % of control | [5] 102 % of control | dose: 360.0 mg/kg/injection, schedule: Q01DX009 (ip), vehicle: Klucel (hydroxypropylcellulose) (HPC) 93 % of control | [6] 96 % of control

CCOC(=O)CCC(NC(=O)c1ccc(NCc2nnc3nc(N)nc(N)c3n2)cc1)C(=O)OCC (stereo unspecified)
inactive: dose: 25.0 mg/kg/injection, schedule: Q01DX001 (ip), vehicle: saline with Tween-80 100 % of control | dose: 50.0 mg/kg/injection, schedule: Q01DX001 (ip), vehicle: saline with Tween-80 95 % of control | [12] 107 % of control

COc1ccc([N+](=O)[O-])cc1CNCCCl
inactive: dose: 100.0 mg/kg/injection, schedule: Q01DX001 (ip), vehicle: Klucel (hydroxypropylcellulose) (HPC) 100 % of control | dose: 400.0 mg/kg/injection, schedule: Q01DX001 (ip), vehicle: Klucel (hydroxypropylcellulose) (HPC) 94 % of control

CC12CCC(C/C1=N\N=C(N)N)C2(C)C (stereo unspecified)
inactive: dose: 9.37 mg/kg/injection, schedule: Q01DX009 (ip), vehicle: saline 97 % of control | dose: 18.75 mg/kg/injection, schedule: Q01DX009 (ip), vehicle: saline 96 % of control | dose: 18.75 mg/kg/injection, schedule: Q04DX003 (ip), vehicle: saline 102 % of control | dose: 37.5 mg/kg/injection, schedule: Q01DX009 (ip), vehicle: saline 102 % of control | dose: 37.5 mg/kg/injection, schedule: Q04DX003 (ip), vehicle: saline 94 % of control | dose: 75.0 mg/kg/injection, schedule: Q01DX001 (ip), vehicle: saline 105 % of control | dose: 75.0 mg/kg/injection, schedule: Q04DX003 (ip), vehicle: saline 88 % of control

CCC/C(=C/c1cc2ccccc2c2ccccc12)[N+](=O)[O-]
inactive: dose: 100.0 mg/kg/injection, schedule: Q01DX001 (ip), vehicle: carboxymethylcellulose (CMC) 97 % of control | dose: 200.0 mg/kg/injection, schedule: Q01DX001 (ip), vehicle: carboxymethylcellulose (CMC) 111 % of control | dose: 400.0 mg/kg/injection, schedule: Q01DX001 (ip), vehicle: carboxymethylcellulose (CMC) 106 % of control

O=[N+]([O-])c1ccc(S(=O)(=O)OCc2cccc(OS(=O)(=O)c3ccc([N+](=O)[O-])cc3)c2)cc1
inactive: [12] 100 % of control | [1] 94 % of control | [4] 100 % of control | dose: 200.0 mg/kg/injection, schedule: Q01DX001 (ip), vehicle: saline with Tween-80 104 % of control | [2] 93 % of control | [5] 95 % of control | dose: 400.0 mg/kg/injection, schedule: Q01DX001 (ip), vehicle: saline with Tween-80 102 % of control | [3] 107 % of control | [6] 102 % of control

CCOC(=O)/C(C#N)=C\c1cccs1
inactive: [4] 103 % of control

Cc1ccc(NC(=O)COc2ccc([N+](=O)[O-])cc2Cl)cc1S(=O)(=O)F
inactive: dose: 87.5 mg/kg/injection, schedule: Q04DX003 (ip), vehicle: gum acacia 97 % of control | dose: 175.0 mg/kg/injection, schedule: Q04DX003 (ip), vehicle: gum acacia 100 % of control | dose: 350.0 mg/kg/injection, schedule: Q04DX003 (ip), vehicle: gum acacia 94 % of control

OCCCCCCCCCCCCO
inactive: [9] 105 % of control | [10] 94 % of control | [11] 103 % of control

CCOCCc1ccccn1
inactive: dose: 100.0 mg/kg/injection, schedule: Q01DX009 (ip), vehicle: saline 113 % of control | dose: 100.0 mg/kg/injection, schedule: Q04DX003 (ip), vehicle: saline 103 % of control | dose: 200.0 mg/kg/injection, schedule: Q01DX009 (ip), vehicle: saline 100 % of control | dose: 200.0 mg/kg/injection, schedule: Q04DX003 (ip), vehicle: saline 103 % of control | dose: 400.0 mg/kg/injection, schedule: Q01DX009 (ip), vehicle: saline 96 % of control | dose: 400.0 mg/kg/injection, schedule: Q04DX003 (ip), vehicle: saline 101 % of control

O=C1c2ccccc2C(=O)c2c(O)c(Cc3ccccn3)cc(O)c21
inactive: dose: 100.0 mg/kg/injection, schedule: Q04DX003 (ip), vehicle: saline sonified 89 % of control | dose: 200.0 mg/kg/injection, schedule: Q04DX003 (ip), vehicle: saline sonified 89 % of control | dose: 400.0 mg/kg/injection, schedule: Q04DX003 (ip), vehicle: saline sonified 94 % of control

COc1ccc(C2(OC)Oc3cc(OC)ccc3-c3nc4ccccc4nc32)cc1 (stereo unspecified)
inactive: dose: 50.0 mg/kg/injection, schedule: Q01DX001 (ip), vehicle: saline 101 % of control | [7] 101 % of control | dose: 200.0 mg/kg/injection, schedule: Q01DX001 (ip), vehicle: saline 95 % of control | [8] 101 % of control

COC(OC)c1nc(N)[nH]c(=O)c1Cc1cccc2ccccc12
inactive: [13] 97 % of control | [14] 86 % of control | [15] 105 % of control

CC(C)CCCC(C)C1CCC2C3CC=C4CC(C5C(=O)NC(=O)NC5=O)CCC4(C)C3CCC12C (stereo unspecified)
inactive: dose: 12.5 mg/kg/injection, schedule: Q04DX003 (ip), vehicle: saline with Tween-80 96 % of control | dose: 25.0 mg/kg/injection, schedule: Q04DX003 (ip), vehicle: saline with Tween-80 96 % of control | dose: 50.0 mg/kg/injection, schedule: Q04DX003 (ip), vehicle: saline with Tween-80 87 % of control | [11] 88 % of control

Cc1cc(CCl)c(Br)cc1CCl
inactive: [13] 100 % of control | [14] 100 % of control | [15] 107 % of control
